Experimental data: patent publication US12594292B2, “Antiviral prodrugs, intermediate-and long-acting formulations and methods” (priority 2022, dated 2026)
Where two headings read alike, the source gives them in different places.

How the values were obtained:
SARS-CoV-2 [1] = assay: SARS-CoV-2 infection assay in Calu-3 cells, nucleocapsid immunofluorescence (Example 6); details: MOI 0.01, 44 hour
Calu-3 cells = assay: Cytotoxicity in Calu-3 cells, nuclei count or CellTiter-Glo (Example 6); details: for select compounds up to 100 μM by CellTiter-Glo
Experimental: After which an equal volume of CellTiter-Glo reagent (Cat. #G7570, Promega, Madison, WI) was added, mixed and luminescence recorded on a Veritas Microplate Luminometer (Turner BioSystems) according to manufacturer recommendations.

HCoV-229E = type: cell-based, human Coronavirus 229E
SARS-CoV-2 [2] = assay: SARS-CoV-2 infection assay in TMPRSS2-Vero cells, nucleocapsid immunofluorescence (Example 6); type: cell-based; details: MOI 0.01, 32 hours
Huh7.5 cells = assay: Cytotoxicity in Huh7.5 cells, nuclei count (Example 6); type: cell-based, human; details: Huh7.5 cells; read-out: CC50
TMPRSS2-Vero cells = assay: Cytotoxicity in TMPRSS2-Vero cells, nuclei count (Example 6); type: cell-based; details: TMPRSS2-Vero cells; read-out: CC50
SARS-CoV-2 [3] = assay: SARS-CoV-2 infection assay in Huh7.5 cells, nucleocapsid immunofluorescence (Example 6); type: cell-based; details: MOI 0.1, 48 hours
HIV-1 = details: for EC50: HIV infected human PBMCs
Experimental: Antiviral activities were determined in HIV infected human PBMCs.

human PBMCs = assay: Cytotoxicity (CC50) in human PBMCs; type: cell-based
HFF cells = assay: Persistence of TFVpp in HFF cells after a 3 day exposure
Text: HFF cells were exposed to 1 micromolar drug for 3 days. At days 0, 1, 2, 4, 7, 14, 21, and 28, cells were trypsinized, counted, and processed for LC/MS measurement of TFVpp. Data were expressed at ftg/cell. nm=not meaningful; ftg—gemtogram.

Calu 3 = assay: Antiviral evaluation of cyanobenzyl analogs, Calu 3; type: cell-based; details: Calu 3
Huh7.5 = assay: Antiviral evaluation of cyanobenzyl analogs, Huh7.5; type: cell-based
[4] = variation of the diester substituent of ODE-TFV
[5] = variation of the diester substituent of ODE-TFV, read-out: CC50
[6] = HFF cells, 1 micromolar drug for 3 days

Compound	EC50 (SARS-CoV-2 [1])	EC90 (SARS-CoV-2 [1])	CC50 (Calu-3 cells)	CC50 (MRC-5 cells)	EC50 (HCoV-229E)	EC90 (HCoV-229E)	EC50 (SARS-CoV-2 [2])	EC90 (SARS-CoV-2 [2])	CC50 (Huh7.5 cells)	CC50 (TMPRSS2-Vero cells)	EC50 (SARS-CoV-2 [3])	EC90 (SARS-CoV-2 [3])	other results
1-O-Octadecyl-2-O-(ethylcyclohexyl)-sn-glyceryl-phospho-RVn [Compound 15g]	147 ± 32 nM	1660 ± 798 nM	> 20000 nM										
2-(Octadecyloxy)ethyl benzyl phospho-RVn [Compound 6c]				> 50000 nM	220 ± 56 nM	440 ± 85 nM							
CCCCCCCCCCCCCCCCCCOCC(COP(=O)(O)OC[C@H]1O[C@@](C#N)(c2ccc3c(N)ncnn23)[C@H](O)[C@@H]1O)OCc1ccccc1 (mixture of isomers) [Compound 15e, 1-O-octadecyl-2-O-benzyl-rac-glyceryl-phospho-RVn]	210 ± 62 nM	763 ± 490 nM	> 20000 nM	30900 ± 7700 nM	210 ± 4 nM	350 ± 6 nM	242 nM	642 nM	> 20000 nM	> 20000 nM	163 nM	514 nM	
CCCCCCCCCCCCCCCCCCOCCOP(=O)(CO[C@H](C)Cn1cnc2c(N)ncnc21)OCc1cccc(C)c1 (stereo partly shown) [3-methyl benzyl]													Selectivity Index (HIV-1; [4]): 1210; EC50 (HIV-1; [4]): 3.2 nM; CC50 (human PBMCs; [5]): 3860 nM
CCCCCCCCCCCCCCCCCCCCOP(=O)(O)OC[C@H]1O[C@](C#N)(c2ccc3c(N)ncnn23)[C@H](O)[C@@H]1O [Compound 4a, Eicosyl-phospho-RVn]	178 ± 35 nM	1320 ± 566 nM	> 20000 nM	> 50000 nM	910 nM	1800 nM	1170 nM	2180 nM	> 20000 nM	> 20000 nM	1410 nM	4750 nM	
CCCCCCCCCCCCCCOC[C@H](COP(=O)(O)OC[C@H]1O[C@@](C#N)(c2ccc3c(N)ncnn23)[C@H](O)[C@@H]1O)OCc1ccccc1 [Compound 15a, 1-O-Tetradecyl-2-O-benzyl-sn-glyceryl-phospho-RVn]	212 ± 25 nM	536 ± 150 nM	> 20000 nM	> 50000 nM	760 ± 340 nM	3250 nM	901 nM	1690 nM	> 20000 nM	> 20000 nM	156 nM	493 nM	
CCCCCCCCCCCCCCCCOC[C@H](COP(=O)(O)OC[C@H]1O[C@@](C#N)(c2ccc3c(N)ncnn23)[C@H](O)[C@@H]1O)OCc1ccccc1 [Compound 15b, 1-O-Hexadecyl-2-O-benzyl-sn-glyceryl-phospho-RVn]	101 ± 20 nM	623 ± 272 nM	88200 ± 8890 nM	> 50000 nM	560 ± 270 nM	980 ± 380 nM	395 nM	810 nM	> 20000 nM	> 20000 nM	130 nM	309 nM	
CCCCCCCCCCCCCCCCCCOC[C@H](COP(=O)(O)OC[C@H]1O[C@@](C#N)(c2ccc3c(N)ncnn23)[C@H](O)[C@@H]1O)OCCCCCCCC [Compound 15f, 1-O-Octadecyl-2-O-octyl-sn-glyceryl-phospho-RVn]	410 ± 60 nM	2310 ± 738 nM	> 20000 nM	> 50000 nM	120 ± 57 nM	290 ± 58 nM	1330 nM	2350 nM	> 20000 nM	> 20000 nM	710 nM	1710 nM	
CCCCCCCCCCCCCCCCCCOC[C@H](COP(=O)(O)OC[C@H]1O[C@@](C#N)(c2ccc3c(N)ncnn23)[C@H](O)[C@@H]1O)OCc1cccc(F)c1 [Compound 15h, 1-O-Octadecyl-2-O-(3-fluoro-benzyl)-sn-glyceryl-phospho-RVn]	216 ± 62 nM	548 ± 368 nM	> 20000 nM	22900 ± 100 nM	1400 ± 58 nM	2800 ± 40 nM	270 nM	629 nM	> 20000 nM	> 20000 nM	182 nM	444 nM	
CCCCCCCC/C=C\CCCCCCCCOC[C@H](COP(=O)(O)OC[C@H]1O[C@@](C#N)(c2ccc3c(N)ncnn23)[C@H](O)[C@@H]1O)OCc1ccccc1 [Compound 15l, 1-O-Oleyl-2-O-benzyl-sn-glyceryl-phospho-RVn]	198 ± 77 nM	294 ± 93 nM	79000 ± 6950 nM	> 50000 nM	130 ± 29 nM	260 ± 3.7 nM	295 nM	568 nM	> 20000 nM	> 20000 nM	100 nM	246 nM	
CCCCCCCCCCCCCCCCCCOC[C@@H](COP(=O)(O)OC[C@H]1O[C@@](C#N)(c2ccc3c(N)ncnn23)[C@H](O)[C@@H]1O)OCc1ccccc1 [Compound 15n, 3-O-Octadecyl-2-O-benzyl-sn-glyceryl-1-phospho-RVn]	163 ± 22 nM	623 ± 183 nM	> 20000 nM										
CCCCCCCCCCCCCCCCCCOC[C@H](COP(=O)(O)OC[C@H]1O[C@@](C#N)(c2ccc3c(N)ncnn23)[C@H](O)[C@@H]1O)OCc1cccc(C(F)(F)F)c1 [Compound 15o, 1-O-Octadecyl-2-O-(3-trifluoromethyl)benzyl-sn-glyceryl-phospho-RVn]	166 ± 68 nM	278 ± 109 nM	> 20000 nM	16000 ± 2800 nM	160 ± 46 nM	460 ± 270 nM							
CCCCCCCCCCCCCCCCCCOC[C@H](COP(=O)(O)OC[C@H]1O[C@@](C#N)(c2ccc3c(N)ncnn23)[C@H](O)[C@@H]1O)OCc1ccc(C(F)(F)F)cc1 [Compound 15p, 1-O-Octadecyl-2-O-(4-trifluoromethyl)benzyl-sn-glyceryl-phospho-RVn]				13900 ± 8800 nM		330 ± 39 nM							
CCCCCCCCCCCCCCCCCCOC[C@H](COP(=O)(OCc1ccccc1)OC[C@H]1O[C@@](C#N)(c2ccc3c(N)ncnn23)[C@H](O)[C@@H]1O)OCc1ccccc1 (stereo partly shown) [Compound 17, 1-O-Octadecyl-2-O-benzyl-sn-glyceryl-benzyl-phospho-RVn]	5320 ± 1390 nM	10900 ± 5480 nM	> 20000 nM	> 50000 nM	1500 ± 930 nM	4270 ± 880 nM	7440 nM	15300 nM	> 20000 nM	> 20000 nM	3540 nM	16400 nM	
CCCCCCCCCCCCCCCCCCOC[C@H](COP1(=O)OC[C@H]2O[C@@](C#N)(c3ccc4c(N)ncnn34)[C@H](O)[C@@H]2O1)OCc1ccccc1 (stereo partly shown) [Compound 18-eq, GS-441524-3′,5′-cyclic monophosphate, 1-O-octadecyl-2-O-benzyl-sn-glyceryl ester]	> 20000 nM	> 20000 nM	> 20000 nM										
CCCCCCCCCCCCCCCCCCOCCOP1(=O)OCC2OC(C#N)(c3ccc4c(N)ncnn34)C(O)C2O1 (stereo not shown) [Compound 19-ax]	8150 ± 8420 nM	> 20000 nM	> 20000 nM										
CCCCCCCCCCCCCCCCCCOCCO[P@]1(=O)OC[C@H]2O[C@](C#N)(c3ccc4c(N)ncnn34)[C@H](O)[C@@H]2O1 [Compound 19-eq]	2760 ± 808 nM	19200 ± 12700 nM	> 20000 nM										
CCCCCCCCCCCCCCCCOCCCOP(=O)(CO[C@H](C)Cn1cnc2c(N)ncnc21)OCc1ccccc1 (stereo partly shown) [HDP-Bn-TFV]													T1/2 of TFVpp (HFF cells): 1.8; Tmax of TFVpp (HFF cells): 0 h
CCCCCCCCCCCCCCCCCCOC[C@H](COP(=O)(O)OC[C@H]1O[C@@](C#N)(c2ccc3c(N)ncnn23)[C@@H](O)C1O)OCc1ccc(C#N)cc1 (stereo partly shown) [OD(4-CN-Bn)G-P-RVn, 1-O-Octadecyl-2-O-(4-cyanobenzyl)-sn-glyceryl-phospho-RVn]													SI (Calu 3): 1400; EC50 (Calu 3; read-out: EC50): 43 ± 13 nM; EC90 (Calu 3; read-out: EC90): 82 ± 22 nM; SI (Huh7.5): 1966; EC50 (Huh7.5; read-out: EC50): 24 ± 2 nM; EC90 (Huh7.5; read-out: EC90): 70 ± 10 nM
CCCCCCCCCCCCCCCCCCOCCOP(=O)(CO[C@H](C)Cn1cnc2c(N)ncnc21)OCc1ccc(C)cc1 (stereo partly shown) [ODE-4MeBN-TFV]													Selectivity Index (HIV-1; [4]): 1620; EC50 (HIV-1; [4]): 2.1 nM; T1/2 of TFVpp (HFF cells): 3.1; Tmax of TFVpp (HFF cells): 0 h; CC50 (human PBMCs): 3410 nM
CCCCCCCCCCCCCCCCCCOCCOP(=O)(CO[C@H](C)Cn1cnc2c(N)nc(N)nc21)OCc1ccccc1 (stereo partly drawn) [ODE-Bn-PMPDAP, Octadecyloxyethyl benzyl 9-(R)-[(2-phosphonomethoxy)propyl]-2,6-diaminopurine]													EC50 (HIV-1): active
CCCCCCCCCCCCCCCCCCOCCOP(=O)(CO[C@H](C)Cn1cnc2c(N)ncnc21)OCC (stereo partly shown) [ODE-Et-TFV]													Selectivity Index (HIV-1; [4]): 95; EC50 (HIV-1; [4]): 57 nM; Cmax of TFVpp (HFF cells; [6]): 0.91 ftg/cell; Tmax of TFVpp (HFF cells; [6]): 0 h; CC50 (human PBMCs; [5]): 5360 nM
CCCCCCCCCCCCCCCCCCOCCOP(=O)(O)CO[C@H](C)Cn1cnc2c(N)nc(N)nc21 [ODE-PMPDAP]													Selectivity Index (HIV-1; CC50/EC50): 77,700; EC50 (HIV-1): 0.09 ± 0.05 nM; CC50 (human PBMCs; human PBMCs, read-out: CC50): 7000 ± 7100 nM
CCCCCCCC/C=C\CCCCCCCCOCCOP(=O)(CO[C@H](C)Cn1cnc2c(N)nc(N)nc21)OCc1ccccc1 (stereo partly drawn) [OLE-Bn-PMPDAP, Oleyloxyethyl benzyl 9-(R)-[(2-phosphonomethoxy)propyl]-2,6-diaminopurine]													EC50 (HIV-1): active
